From PMC10587159, “Biosynthesis and engineering of the nonribosomal peptides with a C-terminal putrescine” (Nature Communications, 2023)
Values belong to the compound of their own block, whether it stands above or below them. Non-standard residues stand in square brackets, D forms with d. Residues, ends and D or L forms follow the SMILES beside them. *: point of attachment. dMet(O) = CS(=O)CC[C@@H](N)C(=O)O; Decanoyl = CCCCCCCCCC(=O)*; NH(CH2)4NH2 = NCCCCN*; For = O=C*

Key:
[1] = tested on: C13 domain of GdnB fragments and mutants; test: Condensation of T12-linked L-Ala with Put or other diamines (yield of 24a-27a, LC-MS); assay type: biochemical, Schlegelella brevitalea DSM 7029; conditions: Average of n = 3
Description: In vitro assays for the different enzymes of the C-terminal multi-domains were performed. Reaction buffer contained 80 μM protein, 3 μM Sfp from B. subtilis, 200 μM CoA, 2.5 mM L-Ala and 5 mM ATP was incubated at 30 °C for 30 min. Then, 2.5 mM diamines or polyamines (i.e. putrescine, 1,7-diaminoheptane, 1,6-diaminohexane, 1,5-diaminopentane, 1,2-diaminocyclohexane, spermine, and spermidine, respectively) was added to make final volume of 200 μL. The reaction was further incubated at 30 °C for 1 h or 4 h. Triple amount of cold methanol was added to quench the reaction, and the supernatant was dried by SpeedVac after removed the precipitate at 10,000 × g for 8 min. The reaction mixture was dissolved with 200 μL ddH2O, and then the mixture was derived with D-FDAA according to the procedure of the above Marfey’s analysis. The final reaction mixture was suspended using 100 μL 2 M HCl, which subsequently was dried by SpeedVac. Finally, the mixture dissolved with 100 μL MeOH to detect the target products (24a, 25a, 26a, and 27a) using LC‒MS analysis (5%‒95% ACN in 15 min).

human cells Kasumi = test: MTT cytotoxicity assay, Kasumi; assay type: cell-based; conditions: 24 h
Excerpt: (§1) The two human acute lymphoblastic leukemia cells K562 and Kasumi, two human breast adenocarcinoma cells MCF7 and MDA-MB-231, human hepatoma cell HepG-2, human lung adenocarcinoma cell A549, human gastric cancer cell SGC-7901, human colon cancer cell HCT-116, human ovarian cancer cell line SKOV3, or human lung epithelial normal cell 2B were obtained from Beyotime Biotechnology and utilized to test the cytotoxicity of compounds by MTT assays as previous study. The anti-inflammatory effect of the compounds was detected by the influence on the increase in the level of nitric oxide caused by lipopolysaccharide (LPS) based on the classic Griess method. RAW 264.7 cells (Shanghai Institutes for Biological Science) were seeded in 96-well plates and incubated for 24 h. Then, cells were treated with compounds 29, 29a, 31, and 31a (0-80 μM) for 30 min, followed by co-treatment with LPS ([…]) for another 24 h. The Nitric Oxide assay kit with Griess reagents (Beyotime, Lot: S0021, Shanghai, China) was used to examine cellular supernatant nitrite accumulation, which represents cellular NO levels. The OD value of 540 nm absorbance was detected with a microplate reader. Their authentication in the laboratory was performed regularly based on morphology and gene/protein expression. The tested micro-organisms including Gram-negative bacteria E. coli ATCC 35218 and Pseudomonas aeruginosa ATCC 27853, and Gram-positive bacteria Staphylococcus aureus ATCC 29213 and B. subtilis ATCC 6633, and fungi Candida albicans, Rhizoctonia solani and Aspergillus fumigatus were treated with different concentrations of compounds (1 μM, 10 μM, 100 μM) using Bauer-Kirby disk diffusion method to evaluate the antimicrobial activities.

[2] = tested on: human lung adenocarcinoma cell A549; test: MTT cytotoxicity assay, A549; assay type: cell-based; conditions: 24 h
Excerpt: as §1

[3] = tested on: human lung epithelial normal cell 2B; test: cells; assay type: cell-based; conditions: 24 h
Excerpt: as §1

[4] = tested on: human breast adenocarcinoma cells MCF7; test: cells; assay type: cell-based; conditions: 24 h
Excerpt: as §1

[5] = tested on: human gastric cancer cell SGC-7901; test: cells; assay type: cell-based; conditions: 24 h
Excerpt: as §1

[6] = tested on: human hepatoma cell HepG-2; test: cells; assay type: cell-based; conditions: 24 h
Excerpt: as §1

[7] = tested on: human acute lymphoblastic leukemia cells K562; test: cells; assay type: cell-based; conditions: 24 h
Excerpt: as §1

[8] = tested on: human colon cancer cell HCT-116; test: cells; assay type: cell-based; conditions: 24 h
Excerpt: as §1

[9] = tested on: human breast adenocarcinoma cells MDA-MB-231; test: cells; assay type: cell-based; conditions: 24 h
Excerpt: as §1

[10] = tested on: A1 domain of CsA1T1 (GdnA); test: Adenylation activity of A1 domain (ATP/PPi exchange, pyrophosphate production assay); assay type: biochemical, Schlegelella brevitalea DSM 7029; conditions: for relative activity of A1 domain for the activation of amino acids, Average: CsA1T1 1 μM, 10 mM amino acid, 2.5 mM ATP, pH 7.6, A360, L-Met = 100%, mean of n = 3; for selectivity of A1 domain for amino acids in words: response to reviewers on Supplementary Fig. 6a
Description: For pyrophosphate production assays, the reaction system contains 10 mM amino acid substrates, 2.5 mM ATP (Solarbio), 0.2 mM MESG (Medchemexpress), 1 U/mL purine nucleoside phosphorylase (Shanghai yuanye Bio-Technology Co., Ltd), 0.4 U/mL inorganic pyrophosphatase (Sigma), 150 mM hydroxylamine (Sigma) and 1 μM proteins in 100 μL buffer (50 mM Tris, 300 mM NaCl and 5 mM MgCl2, pH 7.6). The value was read at A360 in a SpectraMax M5 plate reader (Molecular Devices, Sunnyvale, California) in 96 well, clear-bottomed plates (Corning). A360 values were converted to pyrophosphate release, by comparing with a standard curve (KH2PO4 from 2 μM to 128 μM) for known quantities of pyrophosphate.

[11] = tested on: S. brevitalea DSM 7029 wild type; test: Growth curve of DSM 7029 wild type with compounds (Bioscreen C); assay type: cell-based, Schlegelella brevitalea DSM 7029; conditions: CYMG medium, compound 0.1 μg/μL, OD600 every hour for 42 h, Bioscreen C
Description: (§2) The growth curve was tested by Bioscreen C (Labsystems, Finland) as follow. Overnight culture was inoculated into 400 μL fresh CYMG medium in the ratio of 1:100 (the concentration of compounds was 0.1 μg/μL) and shook in normal speed. The OD600 value was gained in every hour for 42 h in total. Biofilm formation was measured at 18 h and 36 h respectively, as reported previously. In brief, the free-floating cells were removed, and the microtitre plate was washed with PBS (pH 7.4) after incubation for 18 h and 36 h. The biofilm was stained by adding 200 µL of crystal violet (0.1%) solution. Crystal violet solution was removed after 15 min and 200 µL of ethanol (95%) was added. The absorbance at OD600 was read using a microplate reader (Infinite M200, Tecan, Männedorf, Switzerland). Meanwhile, free-floating cells were used to test the secretion of pigment. The bacteria were removed and the supernatant was measured at OD600.

[12] = tested on: S. brevitalea DSM 7029 wild type; test: Biofilm formation of DSM 7029 wild type with compounds (crystal violet); assay type: cell-based, Schlegelella brevitalea DSM 7029
Description: as §2

SMILES: CC(N)C(=O)NCCCCCCCNc1cc(NC(C)C(N)=O)c([N+](=O)[O-])cc1[N+](=O)[O-] (stereo not shown) [Compound 27a]
L-Ala condensing with Put, 1,5-diaminopentane, 1,6-diaminohexane, and 1,7-diaminoheptane (Relative Yield of product) ([1]; protein A12T12): 100 | L-Ala condensing with Put, 1,5-diaminopentane, 1,6-diaminohexane, and 1,7-diaminoheptane (Relative Yield of product) ([1]; protein A12T12C13A*T13): 248.895

IC50 [4]: > 20 µM | IC50 [5]: > 20 µM | IC50 [6]: > 20 µM | IC50 [7]: > 20 µM | IC50 [8]: > 20 µM | IC50 [9]: > 20 µM
SMILES: CSCC[C@@H](NC=O)C(=O)N[C@H](CC(N)=O)C(=O)N1CCC[C@H]1C(=O)N[C@H](C(=O)N[C@H](Cc1ccccc1)C(=O)N1CCC[C@H]1C(=O)N[C@@H](Cc1c[nH]c2ccccc12)C(=O)N[C@@H](C(=O)N[C@@H](C)C(=O)N[C@H](C)C(=O)N[C@@H](CO)C(=O)N[C@@H](C)C(=O)NCCCCN)C(C)C)C(C)C [Compound 4, Glidonin D] (For-[dM][dN]PV[dF]PW[dV]A[dA]SA-{NH(CH2)4NH2})
IC50 (human cells Kasumi): > 20 µM | IC50 [2]: > 20 µM | IC50 [3]: > 20 µM

SMILES: N[C@@H](Cc1c[nH]c2ccccc12)C(=O)O [L-Trp]
relative activity of A1 domain for the activation of amino acids, Average [10]: 8.022%

IC50 [6]: > 20 µM | IC50 [9]: > 20 µM
SMILES: CCCCCCCCCC(=O)N[C@H](CCSC)C(=O)N[C@H](CC(N)=O)C(=O)N1CCC[C@H]1C(=O)N[C@H](C(=O)N[C@H](Cc1ccccc1)C(=O)N1CCC[C@H]1C(=O)N[C@@H](Cc1c[nH]c2ccccc12)C(=O)N[C@@H](C(=O)N[C@@H](C)C(=O)N[C@H](C)C(=O)N[C@@H](CO)C(=O)N[C@@H](C)C(=O)NCCCCN)C(C)C)C(C)C [Compound 6, Glidonin F] (Decanoyl-[dM][dN]PV[dF]PW[dV]A[dA]SA-{NH(CH2)4NH2})
IC50 [2]: > 20 µM | IC50 [3]: > 20 µM

SMILES: CSCC[C@H](N)C(=O)O [L-Met]
relative activity of A1 domain for the activation of amino acids, Average [10]: 100%

SMILES: N[C@@H](CCC(=O)O)C(=O)O [L-Glu]
relative activity of A1 domain for the activation of amino acids, Average [10]: 43.4238% | selectivity of A1 domain for amino acids in words [10]: broad selectivity

SMILES: N[C@@H](CS)C(=O)O [L-Cys]
relative activity of A1 domain for the activation of amino acids, Average [10]: 4.302%

SMILES: N[C@@H](CO)C(=O)O [L-Ser]
relative activity of A1 domain for the activation of amino acids, Average [10]: 10.8427%

SMILES: CC(C)[C@H](N)C(=O)O [L-Val]
relative activity of A1 domain for the activation of amino acids, Average [10]: 4.884% | selectivity of A1 domain for amino acids in words [10]: weaker selectivity

IC50 [4]: > 20 µM | IC50 [5]: > 20 µM | IC50 [6]: > 20 µM | IC50 [7]: > 20 µM | IC50 [8]: > 20 µM | IC50 [9]: > 20 µM
SMILES: CC(C)[C@H](NC(=O)[C@@H]1CCCN1C(=O)[C@@H](CC(N)=O)NC(=O)[C@H](N)CC[S+](C)[O-])C(=O)N[C@H](Cc1ccccc1)C(=O)N1CCC[C@H]1C(=O)N[C@@H](Cc1c[nH]c2ccccc12)C(=O)N[C@@H](C(=O)N[C@@H](C)C(=O)N[C@H](C)C(=O)N[C@@H](CO)C(=O)N[C@@H](C)C(=O)NCCCCN)C(C)C (stereo partly shown) [Compound 2, Glidonin B] (H-[dMet(O)][dN]PV[dF]PW[dV]A[dA]SA-{NH(CH2)4NH2})
IC50 (human cells Kasumi): > 20 µM | IC50 [2]: > 20 µM | effect on growth of DSM 7029 wild type in words [11]: no effect | effect on biofilm formation of DSM 7029 wild type in words ([12]; crystal violet staining): less effect on biofilm formation | biofilm formation 18 h, Average ([12]; relative to wild type treated with H2O = 100%, crystal violet 0.1%, OD600, mean of n = 3): 92.0189% | biofilm formation 36 h ([12]; relative to wild type treated with H2O = 100%, crystal violet 0.1%, OD600, replicate 1): 105.006% | biofilm formation 36 h ([12]; relative to wild type treated with H2O = 100%, crystal violet 0.1%, OD600, replicate 2): 81.9095% | biofilm formation 36 h ([12]; relative to wild type treated with H2O = 100%, crystal violet 0.1%, OD600, replicate 3): 97.572% | IC50 [3]: > 20 µM

SMILES: N[C@@H](Cc1ccccc1)C(=O)O [L-Phe]
relative activity of A1 domain for the activation of amino acids, Average [10]: 16.3434%

SMILES: NC(=O)C[C@H](N)C(=O)O [L-Asn]
relative activity of A1 domain for the activation of amino acids, Average [10]: 8.604%
